The values below come from BindingDB's records for doi:10.1021/jm060797q (Teikyo University, 2006).

As a reminder, the IC50 is the point on the concentration scale where inhibition reaches its midpoint. Lower therefore signals higher potency.

The nature of the experiment: Antagonist activity against 1-alpha,25-dihydroxy vitamin D3-induced HL60 cell differentiation by NBT reduction method.

Molecule `C=C1/C(=C\C=C2/CCC[C@]3(C)[C@@H]([C@H](C)C[C@H]4OC(=O)C(=C)[C@@H]4CC(C)C)CC[C@@H]23)C[C@@H](O)[C@H](CCCO)[C@@H]1O` returned an IC50 of 9.3 nM.
The value for `C=C1C(=O)O[C@@H](C[C@@H](C)[C@H]2CC[C@H]3/C(=C/C=C4/C[C@@H](O)C[C@H](O)C4=C)CCC[C@]23C)[C@@H]1C` was 7.7 nM; that for `C=C1/C(=C\C=C2/CCC[C@]3(C)[C@@H]([C@H](C)C[C@H]4OC(=O)C(=C)[C@@H]4C)CC[C@@H]23)C[C@@H](O)[C@H](OCCCO)[C@@H]1O` was 6.1 nM; that for `C=C1/C(=C\C=C2/CCC[C@]3(C)[C@@H]([C@H](C)C[C@@H]4OC(=O)C(=C)[C@@H]4CC)CC[C@@H]23)C[C@@H](O)[C@H](OCCCO)[C@@H]1O` was 8.4 nM.
For `C=C1/C(=C\C=C2/CCC[C@]3(C)[C@@H]([C@H](C)C[C@@H]4OC(=O)C(=C)[C@@H]4CCC)CC[C@@H]23)C[C@@H](O)C[C@@H]1O` the value was 6 nM.
Regarding `C=C1/C(=C\C=C2/CCC[C@]3(C)[C@@H]([C@H](C)C[C@H]4OC(=O)C(=C)[C@@H]4CCCC)CC[C@@H]23)C[C@@H](O)[C@H](OCCCO)[C@@H]1O`, the midpoint of inhibition, the IC50, lay at 8.8 nM.
For `C=C1C(=O)O[C@H](C[C@@H](C)[C@H]2CC[C@H]3/C(=C/C=C4/C[C@@H](O)C[C@H](O)C4=C)CCC[C@]23C)[C@@H]1C` the value was 9.2 nM; for `C=C1/C(=C\C=C2/CCC[C@]3(C)[C@@H]([C@H](C)C[C@@H]4OC(=O)C(=C)[C@@H]4CC)CC[C@@H]23)C[C@@H](O)C[C@@H]1O`, 8.6 nM; for `C=C1/C(=C\C=C2/CCC[C@]3(C)[C@@H]([C@H](C)C[C@@H]4OC(=O)C(=C)[C@H]4CCC)CC[C@@H]23)C[C@@H](O)[C@H](CCCO)[C@@H]1O`, 6.3 nM.
The value for `C=C1/C(=C\C=C2/CCC[C@]3(C)[C@@H]([C@H](C)C[C@H]4OC(=O)C(=C)[C@@H]4CC)CC[C@@H]23)C[C@@H](O)[C@H](OCCCO)[C@@H]1O` was 8.4 nM.
The value for `C=C1C(=O)O[C@@H](C[C@@H](C)[C@H]2CC[C@H]3/C(=C/C=C4/C[C@@H](O)[C@H](OCCCO)[C@H](O)C4=C)CCC[C@]23C)[C@@H]1C` was 6.1 nM; that for `C=C1C(=O)O[C@@H](C[C@@H](C)[C@H]2CC[C@H]3/C(=C/C=C4/C[C@@H](O)C[C@H](O)C4=C)CCC[C@]23C)[C@@H]1CC` was 8.6 nM.
The molecule `C=C1/C(=C\C=C2/CCC[C@]3(C)[C@@H]([C@H](C)C[C@@H]4OC(=O)C(=C)[C@H]4CC(C)C)CC[C@@H]23)C[C@@H](O)[C@H](C)[C@@H]1O` came in with an IC50 of 11 nM.
The value for `C=C1/C(=C\C=C2/CCC[C@]3(C)[C@@H]([C@H](C)C[C@@H]4OC(=O)C(=C)[C@H]4CC(C)C)CC[C@@H]23)C[C@@H](O)[C@H](OCCCO)[C@@H]1O` was 9.3 nM; that for `C=C1/C(=C\C=C2/CCC[C@]3(C)[C@@H]([C@H](C)C[C@@H]4OC(=O)C(=C)[C@H]4CCCC)CC[C@@H]23)C[C@@H](O)[C@H](C)[C@@H]1O` was 6.7 nM; that for `C=C1/C(=C\C=C2/CCC[C@]3(C)[C@@H]([C@H](C)C[C@@H]4OC(=O)C(=C)[C@H]4CC(C)C)CC[C@@H]23)C[C@@H](O)[C@H](CCCO)[C@@H]1O` was 9.3 nM.
`C=C1/C(=C\C=C2/CCC[C@]3(C)[C@@H]([C@H](C)C[C@@H]4OC(=O)C(=C)[C@H]4CCCC)CC[C@@H]23)C[C@@H](O)[C@H](OCCCO)[C@@H]1O` had an IC50 of 8.8 nM.
As for `C=C1/C(=C\C=C2/CCC[C@]3(C)[C@@H]([C@H](C)C[C@H]4OC(=O)C(=C)[C@@H]4CC)CC[C@@H]23)C[C@@H](O)[C@H](C)[C@@H]1O`, 6.7 nM corresponded to half-maximal inhibition (IC50).
In the case of `C=C1/C(=C\C=C2/CCC[C@]3(C)[C@@H]([C@H](C)C[C@H]4OC(=O)C(=C)[C@@H]4CC)CC[C@@H]23)C[C@@H](O)[C@H](CCCO)[C@@H]1O`, inhibition was half-maximal at 8.4 nM (IC50).
The value for `C=C1/C(=C\C=C2/CCC[C@]3(C)[C@@H]([C@H](C)C[C@H]4OC(=O)C(=C)[C@H]4CC)CC[C@@H]23)C[C@@H](O)[C@H](OCCCO)[C@@H]1O` was 8.4 nM.
